For series [1] the following is noted: cited from earlier work; for Solubility in water: marketed/prior reported crystalline Form II, from EMEA scientific discussion of Zelboraf.
The next series in a line: Solubility in water. Type of series: physicochemical. The following applies: product as per the present invention.
For series [2] the following is noted: European assessment report of Zelboraf; low solubility and permeability; cited from earlier work.
The nature of series [3]: Storage stability (morphology and physicochemical characteristics). The following applies: Vemurafenib obtained as per the present process.

Where a name gives a salt, the structure may show the parent alone. Read-outs that look alike come from different tables or passages of the source. Where only a bound is given, the exact number is not on record here.

As a reminder, the solubility is how much of the substance goes into solution per volume. Read a high solubility as much dissolved substance.

For `CCCS(=O)(=O)Nc1ccc(F)c(C(=O)c2c[nH]c3ncc(-c4ccc(Cl)cc4)cc23)c1F` [Form-II, propane-1-sulfonic acid-{3-[5-(4-chlorophenyl)-1H-pyrrolo[2,3-b]pyridine-3-carbonyl]-2,4-difluoro-phenyl}-amide], the Solubility in water in series [1] and in series [1] (listed as Crystalline Vemurafenib (Form II)) was less than 0.1 µg/mL throughout.

Compound `CCCS(=O)(=O)Nc1ccc(F)c(C(=O)c2c[nH]c3ncc(-c4ccc(Cl)cc4)cc23)c1F` [Form-SVM, propane-1-sulfonic acid-{3-[5-(4-chlorophenyl)-1H-pyrrolo[2,3-b]pyridine-3-carbonyl]-2,4-difluoro-phenyl}-amide] came in with a Solubility in water in “Solubility in water” greater than 1 µg/mL. Also, the solubility in “Solubility in water” (water) was greater than 1 µg/mL.

`CCCS(=O)(=O)Nc1ccc(F)c(C(=O)c2c[nH]c3ncc(-c4ccc(Cl)cc4)cc23)c1F` [Vemurafenib trifluoro methane sulfonic acid salt] had a Solubility in water in “Solubility in water” of no less than 1 µg/mL.

For the compound `CCCS(=O)(=O)Nc1ccc(F)c(C(=O)c2c[nH]c3ncc(-c4ccc(Cl)cc4)cc23)c1F` [Vemurafenib, propane-1-sulfonic acid-{3-[5-(4-chlorophenyl)-1H-pyrrolo[2,3-b]pyridine-3-carbonyl]-2,4-difluoro-phenyl}-amide], the “Biopharmaceutics Classification System class” value in series [2] was “Class IV”. Further, in series [3], the “Stable to handle and store without significant change in morphology and physicochemical characteristics” value is listed as “more than 6 months”. The “Solubility in aqueous media” value in series [1] (background description of the drug substance) is recorded as “practically insoluble”. Besides, the Solubility in water in series [1] is less than 0.1 µg/mL.

(Values after patent US10414764B2, “Substantially pure vemurafenib and its salts” (SHILPA MEDICARE LIMITED, priority 2014, dated 2019).)
